# No end group written: not given here.
# Assay: Tolerability / adverse effects of Thymosin alpha 1 in patients with cirrhosis and hepatic decompensation
# Assay type: in vivo, patient
# Protocol: Patient 2 was a person with very far-advanced cirrhosis secondary to long-standing chronic Hepatitis B infection. Their findings included jaundice, weakness, severe encephalopathy, hepato-renal syndrome with renal failure, and portal gastropathy secondary to increased portal vein pressure. They received Thymosin alpha 1 at a dose of 1.6 mg subcutaneously twice weekly under a compassionate use protocol in an attempt to cure their Hepatitis B virus infection so that they could received a liver transplant. […] Death was associated with complications of portal hypertension and cirrhosis, and not due to therapy with Thymosin alpha 1.
# They were started on Thymosin alpha 1 at a dose of 1.6 mg subcutaneously twice weekly, with the intention of treating them for 26 weeks. […] However, their therapy was discontinued after 46 injections because of complications of the cirrhosis. They expired about three weeks after their last injection. Their death was attributed to bleeding esophageal varices and hepatoma.
# In summary, the above three patients with cirrhosis and hepatic decompensation received Thymosin alpha 1 at a dose of 1.6 mg subcutaneously twice weekly for periods varying from 3.5 weeks to 6 months. In each case, the intent of therapy was to cure chronic Hepatitis B virus infection so that the patient could be considered for transplant. […] Two other patients, both of whom had far-advanced disease, died of complications of cirrhosis, with no evidence that Thymosin alpha 1 contributed to their deaths.
substance,measurement,setting,value
Ac-SDAAVDTSSEITTKDLKEKKEVVEEAEN [Thymosin alpha 1],side effects,"Patient 2, 1.6 mg subcutaneously twice weekly, 3 1/2 weeks of therapy",no side effects
same,adverse effects,"Patient 3, 1.6 mg subcutaneously twice weekly, 46 injections",no adverse effects
same,adverse effects due to Tα1,"three patients with cirrhosis and hepatic decompensation, 1.6 mg subcutaneously twice weekly for 3.5 weeks to 6 months",None of the patients reported any adverse effects

# — EP0731710B1, “THYMOSINE ALPHA 1 CONTAINING COMPOSITIONS FOR THE TREATMENT OF PATIENTS HAVING DECOMPENSATED LIVER DISEASE” (ALPHA 1 BIOMEDICALS, INC., priority 1993, dated 2003)
